Measured values from PubChem BioAssay (NCI).
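Values below derive from 48-hour exposures of cells grown in 96-well plates, with endpoints linearly interpolated between the two concentrations bracketing the appropriate inhibition level. GI50 marks 50% less growth. TGI is the concentration that stops growth completely.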

Key:
Assay in all cases: NCI tumour cell line growth inhibition, 48 h
786-0 renal = tested on: 786-0 renal
A498 renal = tested on: A498 renal
A549 NSCLC = tested on: A549 NSCLC
ACHN renal = tested on: ACHN renal
BT-549 breast = tested on: BT-549 breast
CAKI-1 renal = tested on: CAKI-1 renal
CCRF-CEM leukemia = tested on: CCRF-CEM leukemia
COLO 205 colon = tested on: COLO 205 colon
DU-145 prostate = tested on: DU-145 prostate
EKVX NSCLC = tested on: EKVX NSCLC
HCC-2998 colon = tested on: HCC-2998 colon
HCT-116 colon = tested on: HCT-116 colon
HCT-15 colon = tested on: HCT-15 colon
HL-60(TB) leukemia = tested on: HL-60(TB) leukemia
HOP-62 NSCLC = tested on: HOP-62 NSCLC
HOP-92 NSCLC = tested on: HOP-92 NSCLC
HS 578T breast = tested on: HS 578T breast
HT29 colon = tested on: HT29 colon
IGROV1 ovarian = tested on: IGROV1 ovarian
K-562 leukemia = tested on: K-562 leukemia
KM12 colon = tested on: KM12 colon
LOX IMVI melanoma = tested on: LOX IMVI melanoma
M14 melanoma = tested on: M14 melanoma
MALME-3M melanoma = tested on: MALME-3M melanoma
MCF7 breast = tested on: MCF7 breast
MDA-MB-231 breast = tested on: MDA-MB-231 breast
MDA-MB-435 = tested on: MDA-MB-435
MOLT-4 leukemia = tested on: MOLT-4 leukemia
NCI-H226 lung = tested on: NCI-H226 lung
NCI-H23 lung = tested on: NCI-H23 lung
NCI-H460 lung = tested on: NCI-H460 lung
NCI-H522 lung = tested on: NCI-H522 lung
NCI/ADR-RES ovarian = tested on: NCI/ADR-RES ovarian
OVCAR-3 ovarian = tested on: OVCAR-3 ovarian
OVCAR-4 ovarian = tested on: OVCAR-4 ovarian
OVCAR-5 ovarian = tested on: OVCAR-5 ovarian
OVCAR-8 ovarian = tested on: OVCAR-8 ovarian
PC-3 prostate = tested on: PC-3 prostate
RPMI-8226 leukemia = tested on: RPMI-8226 leukemia
RXF 393 renal = tested on: RXF 393 renal
SF-268 CNS = tested on: SF-268 CNS
SF-295 CNS = tested on: SF-295 CNS
SF-539 CNS = tested on: SF-539 CNS
SK-MEL-2 melanoma = tested on: SK-MEL-2 melanoma
SK-MEL-28 melanoma = tested on: SK-MEL-28 melanoma
SK-MEL-5 melanoma = tested on: SK-MEL-5 melanoma
SK-OV-3 ovarian = tested on: SK-OV-3 ovarian
SN12C renal = tested on: SN12C renal
SNB-19 CNS = tested on: SNB-19 CNS
SNB-75 CNS = tested on: SNB-75 CNS
SR leukemia = tested on: SR leukemia
SW-620 colon = tested on: SW-620 colon
T-47D breast = tested on: T-47D breast
TK-10 renal = tested on: TK-10 renal
U251 CNS = tested on: U251 CNS
UACC-257 melanoma = tested on: UACC-257 melanoma
UACC-62 melanoma = tested on: UACC-62 melanoma
UO-31 renal = tested on: UO-31 renal

C[C@H]1COCCN1c1cc(C2(S(=O)(=O)C3CC3)CC2)nc(-c2ccc(NC(=S)NCCO)cc2)n1
GI50 (786-0 renal): 38.2 nM | TGI (786-0 renal): 3.49 µM | GI50 (A498 renal): < 10 nM | TGI (A498 renal): < 13.5 nM | GI50 (A549 NSCLC): 78.2 nM | TGI (A549 NSCLC): 4.35 µM | GI50 (ACHN renal): 70.5 nM | TGI (ACHN renal): > 100 µM | GI50 (BT-549 breast): < 12 nM | TGI (BT-549 breast): 134 nM | GI50 (CAKI-1 renal): 139 nM | TGI (CAKI-1 renal): 10.2 µM | GI50 (CCRF-CEM leukemia): 32.3 nM | TGI (CCRF-CEM leukemia): > 100 µM | GI50 (COLO 205 colon): 17.2 nM | TGI (COLO 205 colon): 10.4 µM | GI50 (DU-145 prostate): 91.9 nM | TGI (DU-145 prostate): > 100 µM | GI50 (EKVX NSCLC): 26.7 nM | TGI (EKVX NSCLC): 3.76 µM | GI50 (HCC-2998 colon): 35 nM | TGI (HCC-2998 colon): > 70.3 µM | GI50 (HCT-116 colon): 98.5 nM | TGI (HCT-116 colon): 21.4 µM | GI50 (HCT-15 colon): 170 nM | TGI (HCT-15 colon): > 100 µM | GI50 (HL-60(TB) leukemia): 702 nM | TGI (HL-60(TB) leukemia): 28.6 µM | GI50 (HOP-62 NSCLC): 48.6 nM | TGI (HOP-62 NSCLC): 4.37 µM | GI50 (HOP-92 NSCLC): < 10 nM | TGI (HOP-92 NSCLC): 60.7 nM | GI50 (HS 578T breast): 10.9 nM | TGI (HS 578T breast): 64.3 nM | GI50 (HT29 colon): 64.8 nM | TGI (HT29 colon): > 60.4 µM | GI50 (IGROV1 ovarian): < 10 nM | TGI (IGROV1 ovarian): 119 nM | GI50 (K-562 leukemia): 49.8 nM | TGI (K-562 leukemia): > 100 µM | GI50 (KM12 colon): 49.4 nM | TGI (KM12 colon): > 100 µM | GI50 (LOX IMVI melanoma): 30.6 nM | TGI (LOX IMVI melanoma): 12.3 µM | GI50 (M14 melanoma): 28.7 nM | TGI (M14 melanoma): 10.1 µM | GI50 (MALME-3M melanoma): < 10 nM | TGI (MALME-3M melanoma): 43.7 nM | GI50 (MCF7 breast): < 10 nM | TGI (MCF7 breast): 18 µM | GI50 (MDA-MB-231 breast): 32.7 nM | TGI (MDA-MB-231 breast): 26.2 µM | GI50 (MDA-MB-435): 24.4 nM | TGI (MDA-MB-435): 1190 nM | GI50 (MOLT-4 leukemia): 46.7 nM | TGI (MOLT-4 leukemia): > 37.8 µM | GI50 (NCI-H226 lung): 23.7 nM | TGI (NCI-H226 lung): 1340 nM | GI50 (NCI-H23 lung): 36 nM | TGI (NCI-H23 lung): 30.6 µM | GI50 (NCI-H460 lung): 20 nM | TGI (NCI-H460 lung): > 100 µM | GI50 (NCI-H522 lung): 21.5 nM | TGI (NCI-H522 lung): 64.8 µM | GI50 (NCI/ADR-RES ovarian): 1930 nM | TGI (NCI/ADR-RES ovarian): 47.8 µM | GI50 (OVCAR-3 ovarian): 22 nM | TGI (OVCAR-3 ovarian): 11.7 µM | GI50 (OVCAR-4 ovarian): 15.9 nM | TGI (OVCAR-4 ovarian): 233 nM | GI50 (OVCAR-5 ovarian): 40.5 nM | TGI (OVCAR-5 ovarian): > 100 µM | GI50 (OVCAR-8 ovarian): 51.1 nM | TGI (OVCAR-8 ovarian): 3.06 µM | GI50 (PC-3 prostate): < 13 nM | TGI (PC-3 prostate): 38.7 µM | GI50 (RPMI-8226 leukemia): < 12.5 nM | TGI (RPMI-8226 leukemia): 1860 nM | GI50 (RXF 393 renal): < 11.2 nM | TGI (RXF 393 renal): 68.9 nM | GI50 (SF-268 CNS): 33.2 nM | TGI (SF-268 CNS): > 41.3 µM | GI50 (SF-295 CNS): 19.4 nM | TGI (SF-295 CNS): 228 nM | GI50 (SF-539 CNS): 29.2 nM | TGI (SF-539 CNS): 347 nM | GI50 (SK-MEL-2 melanoma): 28.9 nM | TGI (SK-MEL-2 melanoma): 517 nM | GI50 (SK-MEL-28 melanoma): < 10 nM | TGI (SK-MEL-28 melanoma): 1100 nM | GI50 (SK-MEL-5 melanoma): 15.1 nM | TGI (SK-MEL-5 melanoma): 147 nM | GI50 (SK-OV-3 ovarian): < 10 nM | TGI (SK-OV-3 ovarian): 55.6 nM | GI50 (SN12C renal): 26.3 nM | TGI (SN12C renal): 61.2 µM | GI50 (SNB-19 CNS): 61 nM | TGI (SNB-19 CNS): 11.5 µM | GI50 (SNB-75 CNS): < 10 nM | TGI (SNB-75 CNS): 86.5 nM | GI50 (SR leukemia): 29.6 nM | TGI (SR leukemia): > 58.2 µM | GI50 (SW-620 colon): 63.4 nM | TGI (SW-620 colon): > 100 µM | GI50 (T-47D breast): < 10 nM | TGI (T-47D breast): 22.4 nM | GI50 (TK-10 renal): 14.8 nM | TGI (TK-10 renal): 274 nM | GI50 (U251 CNS): 52.4 nM | TGI (U251 CNS): 32.2 µM | GI50 (UACC-257 melanoma): 18.7 nM | TGI (UACC-257 melanoma): 320 nM | GI50 (UACC-62 melanoma): < 10 nM | TGI (UACC-62 melanoma): 88.3 nM | GI50 (UO-31 renal): 27.2 nM | TGI (UO-31 renal): 524 nM
